According to US4620971A, “Indium-bleomycin complex” (The United States of America as represented by the …, priority 1983, dated 1986):
Entries after “also recorded” stand apart in the source; their conditions may differ.

Assays:
[1] = Whole body activity retained / excretion in normal mice; type: in vivo, C57BL/6 mice; conditions: ip
Experimental: Male 6-week-old C57BL/6 untreated, not tumor-bearing, mice were given intraperitoneal (ip) injectons of 30-40 μCi of ^111 InCl3, ^111 In-BLM-B2, ^111 In-BLM, ^111 In-BLMC or ^57 Co-BLM. At 1, 2, 4, 24, 48, and 72 hr after injection of the radiopharmaceutical, the animal was made to urinate and then the whole body activity was measured in a dose calibrator (FIG. 8).

serum transferrin = assay: Binding to serum transferrin, in vitro mixtures with plasma (gel electrophoresis); design: species or system mice
Experimental: Solutions of ^111 In-BLM, ^111 In-BLM-B2, ^111 -In-BLM-A2, ^111 In-BLMC and ^57 Co-BLM were analyzed by TLC using 10% ammonium acetate-methanol (1:1 v/v) as the eluant. After applying 0.2 μl of the samples, cold air was blown over the plate for 1-2 minutes. The plate was placed in a TLC cylinder containing freshly prepared eluant and the cylinder immediately covered with a glass plate. All cylinders were enclosed in a sealed plastic bag together with an open beaker containing eluant in order to maintain a saturated atmosphere. One to three, 48-hour urine samples from normal or gliomabearing mice given injections of ^111 In-BLM or one of its fractions were also analyzed by this TLC procedure. The same urine samples were also analyzed by gel electrophoresis on 5% agarose (Sigma or BRL low EEO) (Hoch, et al Anal Biochem. 78: 312-317, 1977). The aqueous gel was equilibrated against Co2 -saturated 0.02M NaHCO3 and the electrode chambers contained CO2 -saturated 0.1M NaHCO3. […] In vitro mixtures of 5 parts urine from untreated mice and 1 part of solution of ^111 In-BLM or its fraction were similarly analyzed immediately after mixing. […] The same gel electrophoresis procedure was used for ^111 In-BLM, ^111 In-BLMC, ^111 In-BLM-A2, ^111 In-BLM-B2 and ^57 Co-BLM; the dried plates were autoradiographed or analyzed with radiochromatogram scanner. […]

Glioma 26 = assay: Control experiment with cold InCl3, intratumor; type: in vivo, C57 BL/6 mice; conditions: for Host weight / Tumor size: cold, i.t.
Experimental: Two control experiments were made with cold InCl3 (InCl3 that had been stored for 4 weeks and was practically nonradioactive, pH=1-3) and cold In-BLMC (prepared with nonradioactive InCl3 by the same method as that used for ^111 In-BLMC, final pH=1.5-3.0). At a tumor age of 6 days, ip injections were given daily for 3 days: Group VII (n=5)--0.2 ml of 0.9% NaCl; Group VIII (n=5)--In-BLMC carried by 0.004 mg BLM/g tumor weight in 0.2 ml of 0.9% NaCl. At a tumor age of 13 days, single doses were given it: Group IX (n=2)--0.7 ml of 0.9% NaCl/g tumor weight; Group X (n=3)--InCl, 0.7 ml/g tumor weight.
The tumor size (product of the three dimensions in mm^3) and body weight were measured daily for 16 days following the first injection. Host weight was obtained by subtracting tumor weight from body weight, where tumor weight (g)=tumor size (d1 d2 d3, mm^3)×0.00053

glioma = assay: Gamma images - tumor imaging in glioma-bearing mice; type: in vivo; conditions: 24 hr after i.p. injection
Source text: The 2- to 3-week-old glioma-bearing mice (tumor size: 1.0-1.5 cm) were given injections of ^111 In-BLMC, ^67 Ga-citrate, or ^111 In-BLM into the orbital sinus (or by ip injection). Images were taken with a gamma camera (Raytheon) immediately, 1, 2, 4, 24, and 48 hr after injection by using a pinhole collimator (1/4 inch diameter), with the distance of 12 cm between mouse and collimator. ^111 In-BLM, and ^111 In-BLMC were obtained according to Examples II and III; ^67 Ga-citrate was commercially obtained from New England Nuclear (NEN), Boston, Mass.

[Cl][111In]([Cl])[Cl] [^111 InCl3]
Rate of excretion (from percent activity retained) [1]: rate of excretion increased in the following order, reflecting descreasing binding capacity for transferrin: ^111 InCl3, ^111 In-BLM-B2, ^111 In-BLM, ^57 Co-BLM, ^111 In-BLMC
Binding to transferrin (serum transferrin): binds to serum transferrin in vitro

[Cl][In]([Cl])[Cl] [InCl3]
Tumor size vs NaCl, comparison (Glioma 26; cold InCl3 i.t.): did not affect glioma; also recorded: the tumor sizes increased and were similar
Host weight (Glioma 26; day 0 after therapy): 20.3 ± 2.5 g
Tumor size (Glioma 26; day 0 after therapy): 1238 ± 711 mm^3
Host weight (Glioma 26; day 1 after therapy): 20.4 ± 1.6 g
Tumor size (Glioma 26; day 1 after therapy): 1741 ± 701 mm^3
Host weight (Glioma 26; day 2 after therapy): 20.0 ± 1.6 g
Tumor size (Glioma 26; day 2 after therapy): 1998 ± 559 mm^3
Host weight (Glioma 26; day 3 after therapy): 20.0 ± 1.5 g
Tumor size (Glioma 26; day 3 after therapy): 2496 ± 395 mm^3
Host weight (Glioma 26; day 4 after therapy): 20.0 ± 1.5 g
Tumor size (Glioma 26; day 4 after therapy): 2720 ± 503 mm^3
Host weight (Glioma 26; day 5 after therapy): 19.9 ± 1.6 g
Tumor size (Glioma 26; day 5 after therapy): 3333 ± 276 mm^3
Host weight (Glioma 26; day 6 after therapy): 17.9 ± 1.9 g
Tumor size (Glioma 26; day 6 after therapy): 3882 ± 501 mm^3
Host weight (Glioma 26; day 7 after therapy): 18.8 ± 2.9 g
Tumor size (Glioma 26; day 7 after therapy): 5015 ± 936 mm^3
Host weight (Glioma 26; day 8 after therapy): 19.1 ± 2.4 g
Tumor size (Glioma 26; day 8 after therapy): 5234 ± 1146 mm^3
Host weight (Glioma 26; day 9 after therapy): 20.3 ± 3.8 g
Tumor size (Glioma 26; day 9 after therapy): 5988 ± 492 mm^3

O=C([O-])CC(O)(CC(=O)[O-])C(=O)[O-].[67Ga+3] [^67 Ga-citrate]
Accumulation of radioactivity in tumor (gamma images) (glioma): higher for ^111 In-BLMC (FIG. 9e) than that for ^67 Ga-citrate (FIG. 9d)
Activity in liver and background (gamma images) (glioma): lower for ^111 In-BLMC than those for ^67 Ga-citrate or ^111 In-BLM
